Structures are written as SMILES.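 Where inhibition never reached the appropriate level, the endpoint shown equals the highest concentration tested. Otherwise, values were interpolated linearly from a five-concentration, 48-hour dose response in 96-well plates. GI50: concentration for 50% inhibition of growth. TGI: total growth inhibition.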

We go through 13 compounds from PubChem BioAssay (NCI).

Test systems include PC-3 prostate; MDA-MB-435; HCT-15 colon; RXF 393 renal; RPMI-8226 leukemia; TK-10 renal; MOLT-4 leukemia; A498 renal; UACC-257 melanoma; HS 578T breast.
Assay in all cases: DTP human tumour cell line panel, 48 h

As usually defined, the GI50 is the concentration at which growth is held to half of that of the control. The term TGI denotes the concentration at which net growth stops. Turning to `CC1=C(C(=O)Nc2ccc(Cl)c(Cl)c2)C(c2cccc(Cl)c2)NC(=S)N1` (stereo unspecified), the GI50 in the assay on PC-3 prostate is 14.1 µM; in the assay with MDA-MB-435, 14 µM; with HCT-15 colon, 15.1 µM; in the assay with RXF 393 renal, 9.63 µM; in the assay with RPMI-8226 leukemia it was 23 µM; with TK-10 renal it was 17.7 µM. Also, the GI50 in the assay on MOLT-4 leukemia is 23.2 µM. Also, the TGI with PC-3 prostate is > 50 µM; with MDA-MB-435, 45.1 µM; in the assay with HCT-15 colon it was > 50 µM; with RXF 393 renal, 23.6 µM; in the assay with RPMI-8226 leukemia, > 50 µM; in the assay with TK-10 renal, > 50 µM. Further, in the assay with MOLT-4 leukemia, the TGI was > 50 µM.

With `COC(=O)[C@@]12C3=NO[C@]1(C(=O)OC)C(O[Si](C)(C)C(C)(C)C)[C@@H](OC(C)=O)[C@@H](OC(C)=O)[C@@H]2[C@@H](OCc1ccccc1)CC3` (stereo partly specified), the TGI with A498 renal was > 100 µM; in the assay with UACC-257 melanoma it was > 100 µM; in the assay with HCT-15 colon it was > 100 µM; with RXF 393 renal, 89.6 µM; with RPMI-8226 leukemia, > 100 µM; in the assay on TK-10 renal it was > 100 µM. Moreover, in the assay with MOLT-4 leukemia, the TGI is > 100 µM.

Take `Cc1ccc(S(=O)(=O)NNS(C)(=O)=O)cc1`: the TGI in the assay on UACC-257 melanoma, in the assay with HCT-15 colon, in the assay with RXF 393 renal, with RPMI-8226 leukemia, in the assay with TK-10 renal and with MOLT-4 leukemia was > 100 µM in each case.

As to `N#CC1=C(N)OC2=C(CCOc3c2ccc2ccccc32)C1c1ccc(Br)cc1` (stereo unspecified), the GI50 with PC-3 prostate is 19.9 µM; with MDA-MB-435 it was 16 µM; in the assay on HCT-15 colon, 31 µM; with RXF 393 renal it was 22.8 µM; with RPMI-8226 leukemia, 13.5 µM; in the assay on TK-10 renal it was 21.6 µM. For the same compound, the GI50 in the assay with MOLT-4 leukemia was 11.3 µM. Further, the TGI is 53.6 µM in the assay on PC-3 prostate; 61.2 µM in the assay on MDA-MB-435; > 100 µM in the assay on HCT-15 colon; 80.9 µM in the assay on RXF 393 renal; 40.8 µM with RPMI-8226 leukemia; 61.6 µM in the assay with TK-10 renal. The same compound gave a TGI with MOLT-4 leukemia of 49 µM.

As to `CC(=O)OCC1OC(n2c(=S)n(-c3ccccc3)c(=O)c3cc(Br)ccc32)C(OC(C)=O)C1OC(C)=O` (stereo unspecified), the TGI in the assay on A498 renal, in the assay on UACC-257 melanoma, in the assay on HCT-15 colon, with RXF 393 renal, in the assay on RPMI-8226 leukemia and in the assay on MOLT-4 leukemia was > 100 µM each time.

On to `COc1ccc2c(c1)[n+]([O-])c(-c1ccccc1Cl)c(N)[n+]2[O-]`, for which the TGI with A498 renal, in the assay with UACC-257 melanoma, in the assay with HCT-15 colon, with RPMI-8226 leukemia and in the assay with MOLT-4 leukemia was > 100 µM each time.

In the case of `CC(=O)C1C(=O)C(=O)N(CCN2C(=O)C(=O)C(C(C)=O)C2=O)C1=O` (stereo unspecified), the TGI in the assay on A498 renal, with UACC-257 melanoma, in the assay on HCT-15 colon, with RXF 393 renal, in the assay with RPMI-8226 leukemia and in the assay on TK-10 renal was > 100 µM each time.

As for `CCN1C(=O)N(CC)C2C1N=C(SC)N2/N=C/C=C/c1ccccc1OC` (stereo unspecified), the GI50 was 285 nM in the assay on A498 renal; 0.47 µM in the assay on PC-3 prostate; > 32900 nM in the assay with UACC-257 melanoma; 422 nM in the assay on HS 578T breast; 0.37 µM with HCT-15 colon; 0.376 µM in the assay on RXF 393 renal. Moreover, the GI50 with RPMI-8226 leukemia was 0.37 µM; in the assay on TK-10 renal it was 1.09 µM; with MOLT-4 leukemia it was 0.457 µM. Besides, the TGI with A498 renal was 1.9 µM; in the assay on PC-3 prostate, > 45.3 µM; with UACC-257 melanoma it was > 58 µM; in the assay with HS 578T breast, > 56.4 µM; in the assay on HCT-15 colon it was > 35.7 µM; with RXF 393 renal it was 35.3 µM. Moreover, the values for the TGI with RPMI-8226 leukemia, in the assay with TK-10 renal and with MOLT-4 leukemia were 3.31 µM, > 58.7 µM and > 46.1 µM, respectively.

Consider `CN(C)c1ccc2[nH]c3c(C(N)=O)cc(=O)c(=O)c=3oc2c1`, for which the GI50 was 2680 nM with A498 renal; 2.77 µM in the assay with PC-3 prostate; 1770 nM with UACC-257 melanoma; 973 nM in the assay with HS 578T breast; 0.766 µM with HCT-15 colon; 1.89 µM in the assay with RXF 393 renal. The GI50 in the assay on RPMI-8226 leukemia is 0.502 µM; in the assay with TK-10 renal, 3.73 µM; in the assay on MOLT-4 leukemia it was 0.861 µM. Moreover, the TGI with A498 renal is 9.5 µM; in the assay with PC-3 prostate, > 100 µM; in the assay on UACC-257 melanoma, 6.18 µM; with HS 578T breast, 8.31 µM; with HCT-15 colon it was > 100 µM; in the assay on RXF 393 renal it was 7.24 µM. In addition, the TGI in the assay on RPMI-8226 leukemia was > 100 µM; in the assay on TK-10 renal, > 100 µM; with MOLT-4 leukemia, 8.53 µM.

Turning to `N#Cc1ccc(C2SCc3nc4ccccc4n32)cc1` (stereo unspecified), the TGI with A498 renal, in the assay with UACC-257 melanoma, in the assay on HCT-15 colon, in the assay on RXF 393 renal, with RPMI-8226 leukemia and in the assay with TK-10 renal was > 100 µM in each case. For the same compound, the TGI with MOLT-4 leukemia was > 100 µM.

As to `CCCCOC(=O)NC(=O)c1cn(CCCOC(=O)CCCCCCCCC(=O)OCCCn2cc(C(=O)NC(=O)OCCCC)c(=O)n(C)c2=O)c(=O)n(C)c1=O`, the TGI in the assay on A498 renal, in the assay on UACC-257 melanoma, in the assay with HCT-15 colon, with RXF 393 renal, with RPMI-8226 leukemia and in the assay with TK-10 renal was > 100 µM throughout. For the same compound, the TGI in the assay with MOLT-4 leukemia is > 100 µM.

Regarding `CCN(CC)c1ccc(C2N3CCCCC3[C@@H]3c4[nH]c5ccccc5c4CCN23)cc1` (stereo partly specified), the TGI is 28.2 µM with A498 renal; 77.8 µM in the assay on UACC-257 melanoma; > 100 µM with HCT-15 colon; 44.1 µM in the assay with RXF 393 renal; > 100 µM with RPMI-8226 leukemia; 86.1 µM in the assay with TK-10 renal. Besides, the TGI in the assay on MOLT-4 leukemia was > 100 µM.

In the case of `CC(=O)CC(=O)Nc1ccccc1C(F)(F)F`, the TGI in the assay on A498 renal, in the assay with HCT-15 colon, in the assay with RXF 393 renal, with RPMI-8226 leukemia, in the assay on TK-10 renal and in the assay with MOLT-4 leukemia was > 100 µM throughout.
